Source: patent US6468983B2, “RNase L activators and antisense oligonucleotides effective to treat telomerase-expressing malignancies” (The Cleveland Clinic Foundation, priority 1997, dated 2002)
Values joined by “and” are separate entries in the source; they are usually repeats but may differ in a detail not shown here. Equal entries are not always repeated. “Also recorded” adds a separate entry of the source.

Key:
U373-MG tumors = assay: Subcutaneous xenografts in nude mice, intratumoral oligonucleotide; format: in vivo, Balb/c nude mice; settings: 5 nmol intratumoral daily for 7 days
Experimental: (§1) U251-MG and U373 MG tumor cells (1.0×10^6 cells in 0.1 ml serum free DMEM and 0.1 ml Matrigel) were injected subcutaneously into the right flank of 8-12 week-old female Balb/c nude mice (5 mice for each treatment group). Tumor growth was monitored using calipers every 2- or 3-days. Tumor volume (V) was calculated as (L×W^2)/2, where L=length (mm) and W=width (mm). Oligonucleotide treatment was initiated when the tumors reached an average tumor volume of 60-100 mm^3 (about four to five weeks after injection). Oligonucleotides (5 nmol/20 microliter sterile distilled water) were administered by injecting them directly into the tumor every 24 hr for 7-14 days. Some experiments included lipofectamine at 1 microliter per 20 microliters final volume of oligonucleotide solution. Mice were sacrificed by cervical dislocation the day after the final injection and the tumors were removed, frozen rapidly and 12 μm sections were prepared for histological studies. During all of these experiments, which were approved by the CCF Research Programs Committee, the animals were housed and handled in accordance with the National Institutes of Health guidelines.

U251-MG tumors = assay: as above; format: in vivo, Balb/c nude mice; settings: for reduction in tumor size during the treatment period: intratumoral daily for 14 days, relative to starting size
Experimental: as §1

[1] = test system: human melanoma cell line, SK-MEL-2; assay: Viable cell count, daily oligonucleotide plus lipofectamine; format: cell-based; settings: SK-MEL-2, 0.5 micromolar daily plus lipofectamine
Experimental: (§2) Cells (10,000/well) were seeded on 96 well tissue culture dishes, and treated every 24 hours. A 10× concentrated mixture of oligonucleotides plus lipofectamine in water was prepared containing 5 micromolar oligonucleotide and 80 microgram per ml lipofectamine™ (Gibco/BRL) and incubated for 10 min at room temperature. Media was removed from the cells, 10 microliters of the oligonucleotide/lipofectamine mixture was added directly to the cultured cells followed by 90 microliters of media plus serum. The media was changed with oligonucleotide/lipofectamine treatments every 24 h. Cells were passaged when the control cells reached confluency, and viable cells were counted after staining with Trypan Blue (GibcoBRL). The numbers of cells treated only with lipofectamine were used as the control to calculate percentages of cell survival or viability.
(§3) Similarly, the viability of the breast cancer cell line, MDA468, was reduced by 64% by SpA4-anti-hTR, while the control oligonucleotides reduced cell viability by <20% (FIG. 6). Viability of the human melanoma cell line, A375, was reduced by 43% in three days by SpA4-anti-hTR, while the control oligonucleotides had no effect (FIG. 7). […] Viability of a third human melanoma cell line, SK-MEL-5, was reduced by 43% by SpA4-anti-hTR, with minimal effects by the control oligonucleotides (FIG. 7). Two prostate tumor cells lines, PC3 and DU145, were suppressed by SpA4-anti-hTR treatments by 45% and 60%, respectively (FIGS. 6 and 10). […] The viability of the malignant glioma cell line, U373, was reduced by about 60% in 3 days, with intermediate effects by the control oligonucleotides (FIG. 6). Therefore, the proliferation and survival of every tumor cell type tested was inhibited by SpA4-anti-hTR. […] In contrast, there was no apoptosis detected in the control cells treated with lipofectamine without oligonucleotide (FIG. 12 upper panel).

[2] = test system: human melanoma cell line, SK-MEL-5; assay: as above; format: cell-based; settings: SK-MEL-5, 0.5 micromolar daily plus lipofectamine
Experimental: as §2, §3

[3] = test system: human melanoma cell line, A375; assay: as above; format: cell-based; settings: A375, 0.5 micromolar daily plus lipofectamine
Experimental: as §2, §3

[4] = test system: normal human lung cell line, WI 38; assay: as above; format: cell-based; settings: WI 38, 0.5 micromolar daily plus lipofectamine, 8 days
Experimental: as §2
(§4) For the experiments described below, lipofectamine was used to enhance the uptake of the oligonucleotides into cells (Williams et al., 1996, Leukemia 10:[…]). […] Using this protocol for 8 days, SpA4-anti-hTR reduced cell viability by 9% and 35% in the normal human lung cell line, WI 38, and in normal diploid human fibroblasts (MRC5), respectively, while causing a 90% reduction in the viability of U373 cells.

[5] = test system: normal diploid human fibroblasts (MRC5); assay: as above; format: cell-based; settings: MRC5, 0.5 micromolar daily plus lipofectamine, 8 days
Experimental: as §2, §4

telomerase RNA (hTR) = assay: RT-PCR for telomerase RNA in oligonucleotide-treated U251-MG cells; format: cell-based, human; settings: oligonucleotide 5 μM, 5 hours treatment
Experimental: Chimeric oligonucleotides were synthesised on solid supports and purified as described previously (Torrence et al 1993; Lesiak et al 1993; Xiao et al 1994, 1996; Cirino et al 1997). Tumor cells were seeded at 3×10^5 cells/well (3 ml) in 6-well plates and incubated overnight at 37° C. Cells were then treated with oligonucleotides (5 μM). Five hours later total RNA was isolated by using Trizol solution (GIBCO BRL, Grand Island, N.Y.). Expression of telomerase RNA was determined with RT-PCR. The RNA was reverse transcribed into complementary DNA (cDNA) with random oligos used as a primer, and then the cDNA was diluted three times with buffer 10×PCR buffer (Perkin-Elmer, Norwalk, Conn.) at a final concentration of 1:4. The DNA at each dilution was amplified using primers to antisense and sense sequences on opposite sides of the human telomerase RNA sequence, 5′-[…]-3′ (SEQ ID NO:4) and 5′[…]-3′ […], respectively, or to the GAPDH coding sequence, 5′-[…]-3′ […] and 5′[…]-3′ (SEQ ID NO:7), respectively, producing DNA fragments of 400 bp for telomerase cDNA and 508 bp for the GAPDH cDNA, respectively. The PCR went for 30 cycles (94° C., 1 min; 55° C., 1 min; 72° C., 2 min) for telomerase and 30 cycles (94° C., 1 min; 60° C., 1 min; 74° C., 3 min) for GAPDH. The PCR products were analyzed by 1.2% agarose gel electrophoresis and ethidium bromide staining.
Aliquots of U251-MG cells were treated with the “active” oligonucleotide and the two controls for 5 hours. RNA was then prepared from these cells and subjected to RT-PCR to detect telomerase RNA. […] In contrast, telomerase RNA (hTR) was present in cells treated with the control oligonucleotides; spA2-anti-hTR and spA4-anti-(M6)hTR. Thus, hTR could be selectively destroyed in U251-MG cells. Since the RT-PCR assay is not quantitative, it was not possible to assess whether treatment with the spA2-anti-hTR , which has the fully complementary target sequence, had any antisense effect by itself (see below). […]

[6] = test system: prostate tumor cell line DU145; assay: Viable cell count, daily oligonucleotide plus lipofectamine; format: cell-based, human; settings: DU145, 0.5 micromolar daily plus lipofectamine
Experimental: as §2, §3

For “Sp5′A2′p(5′A2p)3-[(Bu)p]2-5′GCG CGG GGA GCA AAA GCA C3′-3′T5′ (antisense GCGCGGGGAGCAAAAGCAC; 5'-thiophosphate 2-5A tetramer, butanediol linkers, 3'-3'T cap, chemistry not fully specified) [spA4-anti-hTR, 2-5A tetramer linked by butanediol linkers to 19-mer antisense against human telomerase RNA nucleotides 76 to 94]”, the “tumor growth (in words)” value (U373-MG tumors) was “significantly suppressed the growth; also recorded: failed to grow progressively”, the “tumor growth (in words)” value (U251-MG tumors; 5 nmol intratumoral daily for 7 days) was “significantly suppressed the growth; also recorded: failed to grow progressively” and the “average net weight of the tumors after treatment” value (U251-MG tumors; 14 days treatment) was 54.0 ± 28.7 mg. For the same substance, the “further change in tumor size (in words)” value (U251-MG tumors; days 8-14 of the treatment compared with first 7 days) was “only a marginal additional reduction in size”, the “reduction in tumor size during the treatment period” value (U251-MG tumors) was 48% and 50% and the “reduction in tumor size during the treatment period” value (U251-MG tumors; listed as 2-5A-anti-hTR) was 50%. The “effect on growth/viability (in words)” value [1] was “specifically suppressed growth”, the survival [1] was < 0.1% and the “effect on growth/viability (in words)” value [2] was “specifically suppressed growth”. For the same substance, the reduction in viability [2] was 43%, the “effect on growth/viability (in words)” value [3] was “specifically suppressed growth” and the reduction in viability ([3]; three days) was 43%. The “reduction in cell viability” value [4] was 9%, the “reduction in cell viability” value [5] was 35% and the “telomerase RNA (hTR) detected by RT-PCR” value (telomerase RNA (hTR)) was “no detectable telomerase RNA”. For the same substance, the “effect on growth/viability (in words)” value [6] was “specifically suppressed growth” and the suppression of cells [6] was 60%.
